The values below come from patent US5281604A, “Angiotensin II receptor blocking 2,3,6-substituted quinazolinones” (American Cyanamid Company, priority 1993, dated 1994).

Each structure is given as a SMILES string.

This assay deals with T1, Angiotensin II Receptor (Bos taurus, UniProt P25104).
T1 construct: beef adrenal glands are processed as follows: fresh adrenal glands received on crushed ice are cleaned of fatty tissues; tissue Maxwell-Cohen (local slaughter house); host or cells: beef adrenal cortex, microsomal membranes (100,000×g pellet)
T1 sequence (P25104 1-359): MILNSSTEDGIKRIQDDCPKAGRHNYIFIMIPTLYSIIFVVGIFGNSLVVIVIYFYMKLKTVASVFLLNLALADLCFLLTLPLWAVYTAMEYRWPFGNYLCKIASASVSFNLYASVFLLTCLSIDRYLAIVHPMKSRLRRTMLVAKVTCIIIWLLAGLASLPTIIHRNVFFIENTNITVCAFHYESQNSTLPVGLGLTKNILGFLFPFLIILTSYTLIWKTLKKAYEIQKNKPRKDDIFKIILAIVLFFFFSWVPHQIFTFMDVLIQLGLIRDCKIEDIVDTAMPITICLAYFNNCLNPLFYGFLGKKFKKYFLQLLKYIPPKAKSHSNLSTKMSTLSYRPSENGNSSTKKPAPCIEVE
As to the kind of experiment: Receptor Binding Assay: displacement of [125I](Sar1,Ile8)AngII from beef adrenal cortex microsomal membranes. The note with it: 60 min room temperature. An excerpt:
Beef adrenals are obtained from a local slaughter house (Maxwell-Cohen).
[^125 I](Sar^1,Ile^8)AngII, S.A. 2200 Ci/mmole, is purchased from Dupont (NEN®, Boston, Mass.). All unlabeled AngII analogs, Dimethylsulfoxide (DMSO), nucleotides, bovine serum albumin (BSA) are purchased from Sigma Chemical Co., St. Louis, Mo. U.S.A.
Approximately sixteen (16) to twenty (20) beef adrenal glands are processed as follows: fresh adrenal glands received on crushed ice are cleaned of fatty tissues and the tough membranes encapsulating the glands are removed and discarded. The brownish tissue forming the adrenal cortex is scraped off and finely minced with scissors before homogenization. Care is taken to avoid contamination with medullary tissue during dissection. The scraped cortices are suspended in twenty volumes of an ice-cold buffer medium consisting of 10 mM Tris.HCl (pH 7.4 at 22° C.) and containing 1.0 mM EDTA and 0.2M sucrose. Unless otherwise indicated, all subsequent operations are done at 4° C. […] The homogenate is centrifuged first at low speed (3,000×g) for 10 min. The resulting pellet is discarded and the supernatant fluid recentrifuged at 10,000×g for 15 minutes to give a P2 pellet. This P2 pellet is discarded and the liquid phase is carefully decanted off in clean centrifuge tubes and recentrifuged at high speed (100,000×g) for 60 min. The translucent final pellet is harvested and combined in a small volume (20-50.0 ml) of 50.0 mM Tris.HCl buffer, pH 7.2. A 100 ul aliquot is withdrawn and the protein content of the preparation is determined by the Lowry's method (Lowry, O. H., Rosebrough, N. F., Farr, A. L. and Randall, R. J., Protein measurement with Folin phenol reagent. J. Biol. Chem., […], 265-275, 1951). The pelleted membrane is reconstituted in 50.0 mM Tris.HCl buffer containing 0.1 mM of phenylmethylsulfonyl fluoride (PMSF) to give approximately a protein concentration of 2.5 mg per ml of tissue suspension. The membrane preparation is finally aliquoted in 1.0 ml volumes and stored at -70° C. until use in the binding assays.
The binding of [^125 I](Sar^1.Ile^8)AngII to microsomal membranes is initiated by the addition of reconstituted membranes (1:10 vols.) in freshly made 50.0 mM Tris.HCl buffer, pH 7.4 containing 0.25% heat inactivated bovine serum albumin (BSA): 80 ul membrane protein (10 to 20 ug/assay) to wells already containing 100 ul of incubation buffer (as described above) and 20 ul [^125 I](Sar^1,Ile^8)AmgII (Specific Activity, 2200 Ci/mmole) Non-specific binding is measured in the presence of 1.0 uM unlabeled (Sar^1,Ile^8)AngII, added in 20 ul volume. Specific binding for [^125 I](Sar^1,Ile^8) AngII is greater than 90%. In competition studies, experimental compounds are diluted in dimethylsulfoxide (DMSO) and added in 20 ul to wells before the introduction of tissue membranes. This concentration of DMSO is found to have no negative effects on the binding of [^ 125I] (Sar^1,Ile^8) AngII to the membranes. Assays are performed in triplicate. The wells are left undisturbed for 60 min. at room temperature. […] Presoaking the filter sheet in 0.1% polyethyleneimine in normal saline (PEI/Saline) greatly reduces the radioactivity retained by the filter blanks. […] The filters are removed from the filter grid and counted in a Parkard® Cobra Gamma Counder for 1 min. […] The binding data are analyzed by the non-linear interactive "LUNDON-1" program (LUNDON SOFTWARE Inc., Cleveland, Ohio U.S.A.).
As a reminder, the IC50 is the concentration at which inhibition is half-maximal. `CCCCc1nc2ccc(C3CC4C(O3)ON(c3ccccc3)C4c3ccccc3)cc2c(=O)n1Cc1ccc(-c2ccccc2-c2nnn[nH]2)cc1` (stereo not drawn) [Example 10, (3α, 3aβ, 5β, 6aβ)-2-Butyl-6-(hexahydro-2,3-diphenylfuro[3,2-d]isoxazol-5-yl)-3-[[2'-(1H-tetrazol-5-yl)[1,1'-biphenyl]-4-yl]methyl]-4(3H)-quinazolinone] displayed an IC50 of 0.076 µM.

`CCCCc1nc2ccc(C3CC4C(c5ccc(C)cc5)=NOC4O3)cc2c(=O)n1Cc1ccc(-c2ccccc2-c2nnn[nH]2)cc1` (stereo not shown) [Example 12] registered a concentration for half-maximal inhibition (IC50) of 0.1 µM.

Molecule `CCCCc1nc2ccc(C3CC4C(O3)ON3C4CCC3(C)C)cc2c(=O)n1Cc1ccc(-c2ccccc2-c2nnn[nH]2)cc1` (stereo not shown) [Example 14] came in with an IC50 of 0.0319 µM. Regarding `CCCCc1nc2ccc([C@H]3OC[C@H]4[C@@H]3ON3[C@@H]4CCC3(C)C)cc2c(=O)n1Cc1ccc(-c2ccccc2-c2nnn[nH]2)cc1` (relative stereo) [Example 7, (1α, 3aα, 8aβ, 8bα)-2-Butyl-6-(octahydro-6,6-dimethylfuro[3,4-d]pyrrolo[1,2-b]isoxazol-1-yl)-3-[[2'-(1H-tetrazol-5-yl)[1,1'-biphenyl]-4-yl]methyl]-4 (3H)-quinazolinone], the concentration for half-maximal inhibition (IC50) was 0.05 µM.
